The values that follow are results of earlier work, collected in US10744110B2, “Methods of treating lung cancer” (Abraxis BioScience, LLC, priority 2013, dated 2020).

Each structure is given as a SMILES string.

This data set has as its system NSCLC. Particulars: single agent.

`CCC1=C[C@@H]2CN(C1)Cc1c([nH]c3ccccc13)[C@@](C(=O)OC)(c1cc3c(cc1OC)N(C)[C@H]1[C@@](O)(C(=O)OC)[C@H](OC(C)=O)[C@]4(CC)C=CCN5CC[C@]31[C@@H]54)C2` [vinorelbine]: the “response rate (RR)” value was 29.4%.
